# Experimental data as given in patent publication US20100056524A1, “Compound” (priority 2008, published 2010).
# Structures can show the parent of a compound that is named as a salt. Where two headings read alike, the source gives them in different places.
# What was measured:
# SRPK1 = biological target: T1, SRPK1 (Homo sapiens, UniProt Q96SB4); experiment: SRPK1 protein kinase assay; type: biochemical; conditions: for remaining activity at 1 µM: 1 μM compound; for remaining activity at 10 µM: 10 μM compound; for residual kinase activity SRPK1: 1 μm compound
# T1 construct: All protein kinases were of human origin and encoded full length proteins, unless indicated otherwise; made in house
# Source text: (§1) All protein kinases were of human origin and encoded full length proteins, unless indicated otherwise. They were either expressed as glutathione S-transferase (GST) fusion proteins in Escherichia Coli or as hexahistidine (His6)-tagged proteins in insect Sf21 cells. GST fusion proteins were purified by affinity chromatography on glutathione-Sepharose, and His6-tagged proteins on nickel/nitriloacetate-agarose. The procedures for expressing some of the protein kinases used herein have been detailed previously.^8,9 The following sections outline the DNA vectors synthesised and the procedures used to express and purifying protein kinases that have not been reported previously.
# (§2) All assays (25.5 μl) were carried out at room temperature (21° C.) and were linear with respect to time and enzyme concentration under the conditions used. Assays were performed for 30 min using Multidrop Micro reagent dispensers (Thermo Electron Corporation, Waltham, Mass. 02454, USA) in a 96-well format. The concentration of magnesium acetate in the assays was 10 mM and the [γ-33P] ATP (800 cpm/pmol) was used at 5, 20 or 50 μM as indicated, in order to be at or below the Km for ATP for each enzyme. Protein kinases assayed at 5 μM ATP were: —ERK1, ERK8, PKBα, MARK3, Aurora C. Protein kinases assayed at 20 μM ATP were: —JNK1, PDK1, CHK1, CHK2, CDK2 and Aurora B. Protein kinases assayed at 50 μM ATP were: —MNK2, IKKepsilon and TBK1.
# (§3) The assays were initiated with MgATP, stopped by addition of 5 μl of 0.5 M orthophosphoric acid and spotted on to P81 filterplates using a unifilter harvester (PerkinElmer, Boston, Mass. 02118, USA). The IC50 values of inhibitors were determined after carrying out assays at 10 different concentrations of each compound.
# (§4) Unless stated otherwise, enzymes were diluted in 50 mM Tris/HCl pH 7.5, 0.1 mM EGTA, 1 mg/ml BSA, 0.1% (v/v) 2-mercaptoethanol and assayed in 50 mM Tris/HCl pH 7.5, 0.1 mM EGTA, 0.1% (v/v) 2-mercaptoethanol.
# VEG-FR = biological target: T2, VEG-FR (Homo sapiens, UniProt P17948); experiment: VEG-FR protein kinase assay; type: biochemical; conditions: for remaining activity at 1 µM: 1 μM compound; for remaining activity at 10 µM: 10 μM compound; for residual kinase activity VEG-FR: 1 μm compound
# T2 construct: All protein kinases were of human origin and encoded full length proteins, unless indicated otherwise; made in house
# T2 sequence (P17948 784-1338 limits assumed): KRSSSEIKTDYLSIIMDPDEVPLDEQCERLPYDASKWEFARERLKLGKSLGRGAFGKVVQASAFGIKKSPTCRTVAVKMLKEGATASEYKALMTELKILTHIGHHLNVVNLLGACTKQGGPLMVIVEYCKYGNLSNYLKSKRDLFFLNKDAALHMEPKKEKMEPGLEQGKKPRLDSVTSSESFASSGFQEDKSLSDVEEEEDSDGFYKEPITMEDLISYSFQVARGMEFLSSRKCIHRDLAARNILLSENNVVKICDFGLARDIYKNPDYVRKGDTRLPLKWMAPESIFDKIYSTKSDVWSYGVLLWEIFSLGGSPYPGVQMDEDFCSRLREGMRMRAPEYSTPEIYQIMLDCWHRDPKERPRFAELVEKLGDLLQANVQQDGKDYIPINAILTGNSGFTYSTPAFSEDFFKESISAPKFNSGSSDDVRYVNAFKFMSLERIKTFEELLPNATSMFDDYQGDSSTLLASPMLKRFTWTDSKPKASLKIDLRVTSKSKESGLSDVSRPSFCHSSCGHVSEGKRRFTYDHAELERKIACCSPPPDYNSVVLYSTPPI
# Source text: as §1, §2, §3, §4
# PIM3 = biological target: T3, PIM3 (Homo sapiens, UniProt Q86V86); experiment: PIM3 protein kinase assay; type: biochemical; conditions: for remaining activity at 1 µM: 1 μM compound; for remaining activity at 10 µM: 10 μM compound; for residual kinase activity PIM3: 1 μm compound
# T3 construct: All protein kinases were of human origin and encoded full length proteins, unless indicated otherwise; made in house
# Source text: as §1, §2, §3, §4
# MKK1 = biological target: T4, MKK1 (Homo sapiens, UniProt Q02750); experiment: MKK1 protein kinase assay; type: biochemical; conditions: for remaining activity at 1 µM: 1 μM compound; for remaining activity at 10 µM: 10 μM compound; for residual kinase activity MKK1: 1 μm compound
# T4 construct: All protein kinases were of human origin and encoded full length proteins, unless indicated otherwise; made in house
# Source text: as §1, §2, §3, §4
# PKBb = PKBb (Homo sapiens, UniProt P31751, S474D); experiment: PKBb protein kinase assay
# JNK1 = biological target: T5, JNK1 (Homo sapiens, UniProt P45983); experiment: JNK1 protein kinase assay; type: biochemical; conditions: for remaining activity at 1 µM: 1 μM compound; for remaining activity at 10 µM: 10 μM compound; for residual kinase activity JNK1: 1 μm compound
# T5 construct: All protein kinases were of human origin and encoded full length proteins, unless indicated otherwise; made in house
# Source text: as §1
# (§5) In order to produce activated forms of Aurora B and Aurora C, insect Sf21 cells were incubated for 1 h with the protein phosphatase inhibitor okadaic acid (50 nM). JNK isoforms were activated with MKK4 and MKK7, MNK2 with p38α MAPkinase; PKBα, PKBβ, with PDK1, and ERK1 with MKK1. To activate CDK2, bacterial pellets expressing cyclin A2 and CDK2 were mixed together, lyse and purified on glutathione Sepharose. The GST-tags were removed by cleavage with PreScission protease and the CDK2-cyclin A2 complex purified by chromatography on SP-Sepharose. It was then activated with CAK1/CDK7 followed by chromatography on nickel-nitrilotriacetate agarose to remove CAK1/CDK7, which binds to this column by virtue of its C-terminal His6 tag. All the other protein kinases were active as expressed.
# as §2, §3, §4
# EF2K = biological target: T6, EF2K (Homo sapiens, UniProt O00418); experiment: EF2K protein kinase assay; type: biochemical; conditions: for remaining activity at 1 µM: 1 μM compound; for remaining activity at 10 µM: 10 μM compound; for residual kinase activity EF2K: 1 μm compound
# T6 construct: All protein kinases were of human origin and encoded full length proteins, unless indicated otherwise; made in house
# Source text: as §1, §2, §3, §4
# DYRK1A = biological target: T7, DYRK1A (Homo sapiens, UniProt Q13627); experiment: DYRK1A protein kinase assay; type: biochemical; conditions: for remaining activity at 1 µM: 1 μM compound; for remaining activity at 10 µM: 10 μM compound; for residual kinase activity DYRK1A: 1 μm compound
# T7 construct: All protein kinases were of human origin and encoded full length proteins, unless indicated otherwise; made in house
# Source text: as §1, §2, §3, §4
# PKBa = biological target: T8, PKBa (Homo sapiens, UniProt P31749, S473D); experiment: PKBa protein kinase assay; type: biochemical; conditions: for remaining activity at 10 µM: 10 μM compound
# T8 construct: protein kinase Bα[118-480][S473D]; His6; made in house; host or cells: insect Sf21 cells
# Source text: as §1
# The following kinases were expressed in Sf21 cells: Aurora B and Aurora C, extra-cellular signal-regulated kinase 8 (ERK8), microtubule affinity regulating kinase 3 (MARK3), protein kinase Bα[118-480][S473D], protein kinase Bβ (PKBβ[120-481][S474D], 3-phosphoinositide-dependent protein kinase-1 [52-556]
# as §5, §2, §3, §4
# JNK2 = biological target: T9, JNK2 (Homo sapiens, UniProt P45984); experiment: JNK2 protein kinase assay; type: biochemical; conditions: for remaining activity at 1 µM: 1 μM compound; for remaining activity at 10 µM: 10 μM compound; for residual kinase activity JNK2: 1 μm compound
# T9 construct: All protein kinases were of human origin and encoded full length proteins, unless indicated otherwise; made in house
# Source text: as §1, §5, §2, §3, §4
# [1] = SRPK1, read-out: residual kinase activity
# [2] = VEG-FR, read-out: residual kinase activity
# [3] = PIM3, read-out: residual kinase activity
# [4] = MKK1, read-out: residual kinase activity
# [5] = read-out: residual kinase activity
# [6] = JNK1, 20 μM ATP, read-out: residual kinase activity
# [7] = EF2K, read-out: residual kinase activity
# [8] = DYRK1A, read-out: residual kinase activity
# [9] = PKBa, 1 μM compound, 5 μM ATP, read-out: residual kinase activity
# [10] = PKBa, 5 μM ATP, read-out: residual kinase activity
# [11] = JNK2, read-out: residual kinase activity
# [12] = read-out: residual kinase activity SRPK1
# [13] = read-out: residual kinase activity VEG-FR
# [14] = read-out: residual kinase activity PIM3
# [15] = read-out: residual kinase activity MKK1
# [16] = read-out: residual kinase activity PKBb
# [17] = read-out: residual kinase activity JNK1
# [18] = read-out: residual kinase activity EF2K
# [19] = read-out: residual kinase activity DYRK1A
# [20] = read-out: residual kinase activity PKBa
# [21] = 1 μm compound, read-out: residual kinase activity PKBa
# [22] = read-out: residual kinase activity JNK2
# T9 sequence (P45984 whole entry): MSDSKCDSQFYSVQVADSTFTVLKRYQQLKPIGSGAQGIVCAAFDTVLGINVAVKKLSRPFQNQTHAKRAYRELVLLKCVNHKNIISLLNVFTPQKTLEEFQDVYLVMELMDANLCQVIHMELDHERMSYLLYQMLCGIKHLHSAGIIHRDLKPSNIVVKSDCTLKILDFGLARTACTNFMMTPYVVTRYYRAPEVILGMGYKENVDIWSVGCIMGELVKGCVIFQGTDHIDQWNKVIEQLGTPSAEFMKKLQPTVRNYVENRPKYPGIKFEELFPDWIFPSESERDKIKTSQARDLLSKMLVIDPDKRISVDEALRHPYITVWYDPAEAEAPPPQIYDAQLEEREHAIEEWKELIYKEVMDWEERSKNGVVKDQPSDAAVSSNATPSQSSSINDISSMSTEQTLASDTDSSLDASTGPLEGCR
# T4 sequence (Q02750 whole entry): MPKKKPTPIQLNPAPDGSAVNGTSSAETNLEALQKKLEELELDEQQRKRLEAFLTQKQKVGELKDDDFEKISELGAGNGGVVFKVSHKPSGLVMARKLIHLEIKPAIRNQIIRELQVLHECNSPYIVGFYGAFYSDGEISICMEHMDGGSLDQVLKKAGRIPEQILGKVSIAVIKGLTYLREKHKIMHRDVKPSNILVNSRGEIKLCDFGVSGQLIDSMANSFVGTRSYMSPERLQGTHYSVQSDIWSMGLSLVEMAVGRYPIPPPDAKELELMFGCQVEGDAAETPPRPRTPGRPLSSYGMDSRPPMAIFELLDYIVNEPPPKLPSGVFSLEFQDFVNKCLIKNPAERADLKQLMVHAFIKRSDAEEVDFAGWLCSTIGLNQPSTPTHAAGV
# T5 sequence (P45983 1-384 isoform P45983-2): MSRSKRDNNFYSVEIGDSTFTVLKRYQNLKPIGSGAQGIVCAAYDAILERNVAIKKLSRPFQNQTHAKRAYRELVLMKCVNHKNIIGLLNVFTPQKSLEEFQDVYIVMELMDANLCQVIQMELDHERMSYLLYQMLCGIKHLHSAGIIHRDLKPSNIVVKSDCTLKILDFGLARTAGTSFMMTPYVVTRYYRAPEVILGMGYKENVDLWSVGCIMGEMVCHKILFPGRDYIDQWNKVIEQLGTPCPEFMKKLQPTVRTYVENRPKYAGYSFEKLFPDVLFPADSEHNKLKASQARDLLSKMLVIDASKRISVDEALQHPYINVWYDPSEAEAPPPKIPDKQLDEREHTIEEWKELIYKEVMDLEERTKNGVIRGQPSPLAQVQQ
# T8 sequence (P31749 118-480 S473D): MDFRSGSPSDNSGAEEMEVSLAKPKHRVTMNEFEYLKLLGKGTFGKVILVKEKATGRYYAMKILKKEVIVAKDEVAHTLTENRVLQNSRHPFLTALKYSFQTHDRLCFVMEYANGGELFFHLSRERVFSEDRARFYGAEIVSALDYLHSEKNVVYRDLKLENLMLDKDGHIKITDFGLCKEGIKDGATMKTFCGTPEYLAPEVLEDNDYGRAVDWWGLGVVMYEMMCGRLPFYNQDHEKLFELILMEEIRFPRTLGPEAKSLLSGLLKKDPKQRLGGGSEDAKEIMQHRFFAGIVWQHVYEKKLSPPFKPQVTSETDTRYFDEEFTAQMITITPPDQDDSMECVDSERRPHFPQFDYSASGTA
# Chain of PKBb (P31751 120-481 S474D): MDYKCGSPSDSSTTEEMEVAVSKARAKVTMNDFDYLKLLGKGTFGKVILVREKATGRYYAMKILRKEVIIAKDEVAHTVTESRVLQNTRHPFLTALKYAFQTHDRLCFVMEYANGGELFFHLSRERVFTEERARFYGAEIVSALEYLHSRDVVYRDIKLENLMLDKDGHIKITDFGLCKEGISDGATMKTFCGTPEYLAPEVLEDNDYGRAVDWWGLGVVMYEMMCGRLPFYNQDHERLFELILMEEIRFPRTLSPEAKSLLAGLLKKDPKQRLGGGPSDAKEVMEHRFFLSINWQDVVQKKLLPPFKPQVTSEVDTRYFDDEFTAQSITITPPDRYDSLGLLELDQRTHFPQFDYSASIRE
# T1 sequence (Q96SB4 whole entry): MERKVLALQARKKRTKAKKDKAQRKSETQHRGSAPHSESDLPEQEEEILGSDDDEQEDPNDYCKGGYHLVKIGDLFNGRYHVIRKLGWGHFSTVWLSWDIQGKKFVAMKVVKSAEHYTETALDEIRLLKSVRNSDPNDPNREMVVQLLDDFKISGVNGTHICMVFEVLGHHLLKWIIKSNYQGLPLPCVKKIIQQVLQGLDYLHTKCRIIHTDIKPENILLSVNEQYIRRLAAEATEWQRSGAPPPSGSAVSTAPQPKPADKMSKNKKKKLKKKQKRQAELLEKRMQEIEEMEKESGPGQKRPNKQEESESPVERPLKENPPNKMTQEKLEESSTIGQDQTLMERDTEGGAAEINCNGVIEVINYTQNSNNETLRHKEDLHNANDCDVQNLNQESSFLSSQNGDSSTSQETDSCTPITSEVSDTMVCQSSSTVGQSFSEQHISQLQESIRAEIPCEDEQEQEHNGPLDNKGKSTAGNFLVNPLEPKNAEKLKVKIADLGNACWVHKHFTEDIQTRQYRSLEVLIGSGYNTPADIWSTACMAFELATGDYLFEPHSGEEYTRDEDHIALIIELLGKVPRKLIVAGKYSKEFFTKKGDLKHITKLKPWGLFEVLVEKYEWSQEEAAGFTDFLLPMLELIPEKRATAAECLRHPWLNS
SMILES,remaining activity at 1 µM (SRPK1; [1]) [%],remaining activity at 10 µM (SRPK1; [1]) [%],remaining activity at 1 µM (VEG-FR; [2]) [%],remaining activity at 10 µM (VEG-FR; [2]) [%],remaining activity at 1 µM (PIM3; [3]) [%],remaining activity at 10 µM (PIM3; [3]) [%],remaining activity at 1 µM (MKK1; [4]) [%],remaining activity at 10 µM (MKK1; [4]) [%],remaining activity at 1 µM (PKBb; [5]) [%],remaining activity at 10 µM (PKBb; [5]) [%],remaining activity at 1 µM (JNK1; [6]) [%],remaining activity at 10 µM (JNK1; [6]) [%],remaining activity at 1 µM (EF2K; [7]) [%],remaining activity at 10 µM (EF2K; [7]) [%],remaining activity at 1 µM (DYRK1A; [8]) [%],remaining activity at 10 µM (DYRK1A; [8]) [%],remaining activity at 1 µM (PKBa; [9]) [%],remaining activity at 10 µM (PKBa; [10]) [%],remaining activity at 1 µM (JNK2; [11]) [%],remaining activity at 10 µM (JNK2; [11]) [%],further results
"O=C(NCCCNc1nc(Nc2cccc(N3CCCC3=O)c2)ncc1C1CC1)c1cccs1 [Example 47, Thiophene-2-carboxylic acid (3-{5-cyclopropyl-2-[3-(2-oxo-pyrrolidin-1-yl)-phenylamino]-pyrimidin-4-ylamino}-propyl)-amide. Hydrochloride salt]",81,78,12,34,99,78,33,17,117,97,92,86,105,104,84,78,101,90,98,89,
"O=C(NCCCNc1nc(Nc2cccnc2)ncc1C1CC1)c1cccs1 [Example 50, Thiophene-2-carboxylic acid {3-[5-cyclopropyl-2-(pyridin-3-ylamino)-pyrimidin-4-ylamino]-propyl}-amide]",84,57,78,20,102,50,44,24,116,107,94,87,108,101,88,57,109,97,102,66,
"O=C(NCCCNc1nc(Nc2cccc(F)c2)ncc1Br)C1CCC1 [Compound A, cyclobutanecarboxylic acid {3-[5-bromo-2-(3-fluoro-phenylamino)-pyrimidin-4-ylamino]-propyl}-amide, reference compound]",,,,,,,,,,,,,,,,,,,,,remaining activity at 10 µM (SRPK1; [12]): 31%; residual kinase activity SRPK1 (SRPK1): 69%; remaining activity at 10 µM (VEG-FR; [13]): 4%; residual kinase activity VEG-FR (VEG-FR): 4%; remaining activity at 10 µM (PIM3; [14]): 21%; residual kinase activity PIM3 (PIM3): 78%; remaining activity at 10 µM (MKK1; [15]): 2%; residual kinase activity MKK1 (MKK1): 15%; remaining activity at 1 µM (PKBb; [16]): 91%; remaining activity at 10 µM (PKBb; [16]): 93%; remaining activity at 10 µM (JNK1; [17]): 9%; residual kinase activity JNK1 (JNK1): 46%; remaining activity at 10 µM (EF2K; [18]): 88%; residual kinase activity EF2K (EF2K): 96%; remaining activity at 10 µM (DYRK1A; [19]): 38%; residual kinase activity DYRK1A (DYRK1A): 74%; remaining activity at 10 µM (PKBa; [20]): 92%; remaining activity at 1 µM (PKBa; [21]): 107%; remaining activity at 10 µM (JNK2; [22]): 5%; residual kinase activity JNK2 (JNK2): 40%
"O=C(NCCCNc1nc(Nc2cccc(F)c2)ncc1C1CC1)C1CCC1 [Example 23, Cyclobutanecarboxylic acid {3-[5-cyclopropyl-2-(3-fluoro-phenylamino)-pyrimidin-4-ylamino]-propyl}-amide]",75,40,81,27,73,37,52,25,106,114,91,73,105,125,78,56,100,91,78,55,remaining activity at 10 µM (SRPK1; [12]): 40%; residual kinase activity SRPK1 (SRPK1): 75%; remaining activity at 10 µM (VEG-FR; [13]): 27%; residual kinase activity VEG-FR (VEG-FR): 81%; remaining activity at 10 µM (PIM3; [14]): 37%; residual kinase activity PIM3 (PIM3): 73%; remaining activity at 10 µM (MKK1; [15]): 25%; residual kinase activity MKK1 (MKK1): 52%; remaining activity at 1 µM (PKBb; [16]): 106%; remaining activity at 10 µM (PKBb; [16]): 114%; remaining activity at 10 µM (JNK1; [17]): 73%; residual kinase activity JNK1 (JNK1): 91%; remaining activity at 10 µM (EF2K; [18]): 125%; residual kinase activity EF2K (EF2K): 105%; remaining activity at 10 µM (DYRK1A; [19]): 56%; residual kinase activity DYRK1A (DYRK1A): 78%; remaining activity at 10 µM (PKBa; [20]): 91%; remaining activity at 1 µM (PKBa; [21]): 100%; remaining activity at 10 µM (JNK2; [22]): 55%; residual kinase activity JNK2 (JNK2): 78%
